In data set [1] the target is T1, rHuPH20 (Homo sapiens, UniProt P38567).
T1 construct: made in house; host or cells: CHO cells (DG44 CHO, HZ24 plasmid, clone 2B2)
T1 sequence (P38567 36-482): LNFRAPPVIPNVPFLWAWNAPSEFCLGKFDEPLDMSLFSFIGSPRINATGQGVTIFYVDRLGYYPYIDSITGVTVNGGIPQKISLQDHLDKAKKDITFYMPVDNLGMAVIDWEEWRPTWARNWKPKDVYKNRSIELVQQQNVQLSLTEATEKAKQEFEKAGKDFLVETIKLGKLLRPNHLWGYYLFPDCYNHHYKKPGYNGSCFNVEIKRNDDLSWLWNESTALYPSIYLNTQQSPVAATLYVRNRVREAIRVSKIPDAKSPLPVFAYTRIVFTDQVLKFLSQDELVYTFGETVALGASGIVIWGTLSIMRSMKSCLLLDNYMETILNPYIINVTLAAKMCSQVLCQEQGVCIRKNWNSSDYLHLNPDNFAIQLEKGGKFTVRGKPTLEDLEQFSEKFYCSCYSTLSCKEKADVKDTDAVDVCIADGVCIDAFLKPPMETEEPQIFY
As to the kind of experiment: Determination of hyaluronidase activity of rHuPH20, turbidimetric assay (Example 2, variant not specified). It is filed as biochemical. Conditions: for Effect on rHuPH20 enzymatic activity: stabilizer screening in rHuPH20/insulin formulation, semi-quantitative in comparison with NaCl, samples incubated at 30° C. for about one week.

Data set [2] can be described thus: Non-denaturing SEC: percent main peak / aggregates of insulin and rHuPH20. The data set is classed as physicochemical. On the procedure:
Reference samples were stored in HPLC vials at 10° C. prior to use.
Samples were stored in HPLC vials at 10° C. prior to use, for up to 3 days.
0.5× Phosphate Buffered Saline (PBS) solution was prepared by diluting 10×PBS with HPLC grade water.
Insulin percent purity was expressed as percentage of the insulin main peak versus the total insulin peaks. The target specification is less than 2% high molecular weight protein, i.e., insulin aggregates.
SEC was performed using the following conditions: 1× Phosphate Buffered Saline (PBS), a Toso BioScience G2000 SWXL column, and a flow rate set at 1 mL/min. Data were collected as described above and means were reported and entered into the design table following the sample sequence provided by the DOE software.

A short description of data set [3]: RP-HPLC: insulin apparent solubility / percent recovery. On the procedure:
Apparent solubility was measured as the percent insulin recovery as compared to the initial formulations/conditions.
Samples were prepared by withdrawing 100 μL from each vial at every time point and centrifuging prior to loading. Samples were stored in an autosampler at 4° C. prior to use, and were considered stable for 3 days after preparation. All samples were tested in duplicate.
For insulin, 20 μL was injected for each HPLC run.
To determine the apparent solubility, the peak area of insulin/insulin analog main peak and desamido peak were integrated and combined together to calculate the percentage relative to the standards. […] The data were processed using Design-Expert® 7.0 (StatEase) and the “historical data” feature. Insulin percent purity was expressed as the percent of main insulin versus all insulin species.

[4] abbreviates: t = 0, 100 μg/mL rHuPH20, pH 7.3, 140 mM NaCl, 0.01% polysorbate 80, preservative levels of Table 21, in U/mL.
[5] abbreviates: stabilizer screening in rHuPH20/insulin formulation, semi-quantitative in comparison with NaCl, RP-HPLC, samples stored at 5° C.
The mark [6] stands for this setting: 48 hours, 4° C., preservative levels of Table 22, in U/mL.
The mark [7] stands for this setting: 48 hours, 35° C., preservative levels of Table 22, in U/mL.
[8] abbreviates: 35° C., Table 22 concentrations.

Structures can show the parent of a compound that is named as a salt. Where two headings read alike, the source gives them in different places. Residues, ends and D or L forms follow the SMILES beside them.

For the molecule `OCCCCCl` [4-Chloro-1-butanol], the rHuPH20 activity in data set [1] (24 hours, 25° C., in U/mL) was 3500; in data set [1] (5 days, 25° C., in U/mL), 1440; in data set [1] (6 days, 35° C.), “<LOQ”; in data set [1] (setting [4]), 11,350. In addition, the “% Main rHuPH20 peak by non-denaturing SEC” value in data set [2] (4° C., 1 day) is 97.89%; in data set [2] (35° C., 1 day), “<LOD”.

For the molecule `C[N+](C)(C)CC(=O)O` [Betaine], the “Effect on rHuPH20 enzymatic activity” value in data set [1] is recorded as “No effect”. In addition, the “Effect on insulin solubility” value in data set [3] (setting [5]) is “No effect”.

As to `N=C(NCCCCCCNC(=N)NC(=N)Nc1ccc(Cl)cc1)NC(=N)Nc1ccc(Cl)cc1.O=C(O)[C@H](O)[C@@H](O)[C@H](O)[C@H](O)CO.O=C(O)[C@H](O)[C@@H](O)[C@H](O)[C@H](O)CO` [Chlorhexidine digluconate], the rHuPH20 activity is 9520 in data set [1] (24 hours, 25° C., in U/mL); 12,090 in data set [1] (setting [6]); 13,110 in data set [1] (setting [7]); 12310 in data set [1] (5 days, 25° C., in U/mL); 12270 in data set [1] (6 days, 35° C., in U/mL); 9,590 in data set [1] (setting [4]). The “% Main rHuPH20 peak by non-denaturing SEC” value turned out to be 98.35% in data set [2] (4° C., 1 day); 99.77% in data set [2] (4° C., Table 22 concentrations); 98.23% in data set [2] (35° C., 1 day); 98.30% in data set [2] (setting [8]).

Consider `[H]/N=C(\N/C(=N/[H])NCCCCCCNC(=N)NC(=N)Nc1ccc(Cl)cc1)Nc1ccc(Cl)cc1` [Chlorhexidine dihydrochloride], for which the rHuPH20 activity was 8130 in data set [1] (24 hours, 25° C., in U/mL); 8750 in data set [1] (5 days, 25° C., in U/mL); 11890 in data set [1] (6 days, 35° C., in U/mL); 7,720 in data set [1] (setting [4]). The “% Main rHuPH20 peak by non-denaturing SEC” value in data set [2] (4° C., 1 day) stood at 98.76%; in data set [2] (35° C., 1 day), 98.12%.

For `NC(=O)CC[C@H](N)C(=O)O` [Glutamine], the “Effect on rHuPH20 enzymatic activity” value in data set [1] is given as “No effect”. For the same molecule, the “Effect on insulin solubility” value in data set [3] (setting [5]) was “No effect”.

For `NCC(=O)NCC(=O)O` [Gly-Gly] (H-Gly-Gly-OH), the “Effect on rHuPH20 enzymatic activity” value in data set [1] is on record as “No effect”.

For the molecule `O[C@H]1[C@H](O)[C@@H](O)[C@H](O)[C@@H](O)[C@H]1O` [Inositol], the “Effect on rHuPH20 enzymatic activity” value in data set [1] was “No effect”.

As for `N[C@@H](Cc1ccccc1)C(=O)O` [L-Phenylalanine], the rHuPH20 activity in data set [1] (24 hours, 25° C., in U/mL) is 12100; in data set [1] (setting [6]) it was 12,540; in data set [1] (setting [7]) it was 13,130; in data set [1] (5 days, 25° C., in U/mL), 11460; in data set [1] (6 days, 35° C., in U/mL) it was 10660; in data set [1] (setting [4]) it was 13,420. In addition, the “% Main rHuPH20 peak by non-denaturing SEC” value amounted to 98.27% in data set [2] (4° C., 1 day); 100.00% in data set [2] (4° C., Table 22 concentrations); 98.86% in data set [2] (35° C., 1 day); 99.80% in data set [2] (setting [8]).

`NCCCC[C@H](N)C(=O)O` [Lysine]: in data set [1], the “Effect on rHuPH20 enzymatic activity” value was “No effect”. Besides, the “Effect on insulin solubility” value in data set [3] (setting [5]) is on record as “No effect”.

As for `OC[C@@H](O)[C@@H](O)[C@H](O)[C@H](O)CO` [Mannitol], in data set [1], the “Effect on rHuPH20 enzymatic activity” value was “No effect”.

For `O=C(O)CCCc1ccccc1` [Phenyl butyric acid], the “Effect on rHuPH20 enzymatic activity” value in data set [1] was “No effect”.

As to `O=C([O-])c1ccccc1.[Na+]` [Sodium Benzoate], the “Effect on rHuPH20 enzymatic activity” value in data set [1] is reported as “No effect”.

With `OC[C@H]1O[C@@](CO)(O[C@H]2O[C@H](CO)[C@@H](O)[C@H](O)[C@H]2O)[C@@H](O)[C@@H]1O` [Sucrose], the “Effect on rHuPH20 enzymatic activity” value in data set [1] is “No effect”.

Regarding `C[CH2][Hg][S]c1ccccc1C(=O)[O-].[Na+]` [Thimerosal], the rHuPH20 activity is 8990 in data set [1] (24 hours, 25° C., in U/mL); 8960 in data set [1] (5 days, 25° C., in U/mL); 10070 in data set [1] (6 days, 35° C., in U/mL); 10,290 in data set [1] (setting [4]). Besides, the “% Main rHuPH20 peak by non-denaturing SEC” value in data set [2] (4° C., 1 day) is 98.59%; in data set [2] (35° C., 1 day), 98.31%.

Turning to `OC[C@H]1O[C@H](O[C@H]2O[C@H](CO)[C@@H](O)[C@H](O)[C@H]2O)[C@H](O)[C@@H](O)[C@@H]1O` [Trehalose], the “Effect on rHuPH20 enzymatic activity” value in data set [1] is “No effect”.

As for `C[N+](C)(C)[O-]` [Trimethylamine oxide (TMAO)], the “Effect on rHuPH20 enzymatic activity” value in data set [1] was “No effect”. Also, the “Effect on insulin solubility” value in data set [3] (setting [5]) is “No effect”.

As to `OCC(O)CO` [glycerol], the “Effect on rHuPH20 enzymatic activity” value in data set [1] is reported as “No effect”. Also, in data set [3], the “Effect on insulin solubility” value is “No/slight effect;”.

For `Cc1cccc(O)c1` [m-cresol], the rHuPH20 activity is listed as 10,950 in data set [1] (setting [6]) and “<LOQ” in data set [1] (48 hours, 35° C., preservative levels of Table 22). The “Enzymatic Activity of rHuPH20” value in data set [1] (preservative 0.05%, 1 Month, 25° C., insulin/rHuPH20 formulation pH 7.1, 140 mM NaCl) came to 2103 U/mL; in data set [1] (preservative 0.05%, 1 Week, 35° C.), 2019 U/mL; in data set [1] (preservative 0.05%, 2 Weeks, 35° C.), 1955 U/mL; in data set [1] (preservative 0.1%, 1 Month, 25° C.) it was 2188 U/mL; in data set [1] (preservative 0.1%, 1 Week, 35° C.), 2147 U/mL; in data set [1] (preservative 0.1%, 2 Weeks, 35° C.), 2069 U/mL. The “Enzymatic Activity of rHuPH20” value in data set [1] (preservative 0.2%, 1 Month, 25° C.) is 2013 U/mL; in data set [1] (preservative 0.2%, 1 Week, 35° C.) it was 466 U/mL; in data set [1] (preservative 0.2%, 2 Weeks, 35° C.), 185 U/mL; in data set [1] (preservative 0.4%, 1 Month, 25° C.), “<LOD”; in data set [1] (preservative 0.4%, 1 Week, 35° C.), “<LOD”; in data set [1] (preservative 0.4%, 2 Weeks, 35° C.) it was “<LOD”. The “% Main rHuPH20 peak by non-denaturing SEC” value in data set [2] (4° C., Table 22 concentrations) amounted to 100.00%; in data set [2] (setting [8]), 0.834%.

Regarding `COC(=O)c1ccc(O)cc1` [methylparaben], the “Enzymatic Activity of rHuPH20” value in data set [1] (preservative 0.3%, 1 Week, 35° C.) was 730 U/mL. For the same molecule, the “% Main rHuPH20 peak by non-denaturing SEC” value is reported as 100.00% in data set [2] (4° C., Table 22 concentrations) and 96.91% in data set [2] (setting [8]).

Turning to `OC[C@@H](O)[C@@H](O)[C@H](O)[C@@H](O)CO` [sorbitol], the “Effect on rHuPH20 enzymatic activity” value in data set [1] is recorded as “No effect”.

Turning to Benzalkonium Chloride, the rHuPH20 activity in data set [1] (24 hours, 25° C., in U/mL) was 10750; in data set [1] (5 days, 25° C., in U/mL), 2710; in data set [1] (6 days, 35° C.), “<LOQ”; in data set [1] (setting [4]), 11,740. Besides, the “% Main rHuPH20 peak by non-denaturing SEC” value in data set [2] (4° C., 1 day) is reported as 99.64%; in data set [2] (35° C., 1 day), “<LOD”.

Consider hyaluronic acid [HA], for which the “% of the original activity retained” value turned out to be 57% in data set [1] (1 week at 30° C., pH 7.1, 1 mg/mL HA, 75 mM NaCl) and 85% in data set [1] (1 week at 30° C., pH 7.1, 10 mg/mL HA). Also, the “% of the original rHuPH20 remained” value in data set [1] (1 week at 30° C., pH 7.1, 5.5 mg/mL HA, 100 mM NaCl) came to 68%. For the same molecule, the rHuPH20 activity in data set [1] (1 week at 30° C., pH 7.1, 10 mg/mL HA, from 600 U/mL) is on record as 510 U/mL; in data set [1] (rHuPH20/insulin co-formulation, 1 week at 30° C., pH 7.1, 1 mg/mL HA, 75 mM NaCl, from 600 U/mL) it was 341 U/mL. The “effect on rHuPH20 stability in comparison with NaCl” value in data set [1] (stabilizer screening, 30° C. about one week, […] m-cresol, 0.2% phenol) is on record as “stabilized rHuPH20 more than NaCl”.

(Values after patent US20130011378A1, “Stable formulations of a hyaluronan-degrading enzyme” (priority 2011, published 2013).)
